Data on 11 compounds can be found in ChEMBL document CHEMBL3297661, “1-Substituted-5-[(3,5-dinitrobenzyl)sulfanyl]-1H-tetrazoles and their isosteric analogs: A new class of selective antitubercular agents active against drug-susceptible and multidrug-resistant mycobacteria” (Eur J Med Chem, 2014).

What all share (type): functional
Test [1] deals with Mycobacterium tuberculosis. As to the kind of experiment: Antimycobacterial activity against Mycobacterium tuberculosis CNCTC My 331/88 after 14 days by micromethod. Conditions: CNCTC My 331/88, 336 h.
Test [2] concerns Mycobacterium tuberculosis. As to the kind of experiment: Antimycobacterial activity against Mycobacterium tuberculosis CNCTC My 331/88 after 21 days by micromethod. The settings on record: CNCTC My 331/88, 504 h.
Test [3] concerns Mycobacterium avium. Description: Antimycobacterial activity against Mycobacterium avium CNCTC My 330/88 after 14 days by micromethod. Conditions: CNCTC My 330/88, 336 h.
The test system of test [4] is Mycobacterium avium. As to the kind of experiment: Antimycobacterial activity against Mycobacterium avium CNCTC My 330/88 after 21 days by micromethod. The settings on record: CNCTC My 330/88, 504 h.
For test [5], the system named is Mycobacterium kansasii. As to the kind of experiment: Antimycobacterial activity against Mycobacterium kansasii CNCTC My 235/80 after 7 days by micromethod. Conditions: CNCTC My 235/80, 168 h.
Test [6] deals with Mycobacterium kansasii. Description: Antimycobacterial activity against Mycobacterium kansasii CNCTC My 235/80 after 14 days by micromethod. The settings on record: CNCTC My 235/80, 336 h.
Test [7] has as its system Mycobacterium kansasii. Description: Antimycobacterial activity against Mycobacterium kansasii CNCTC My 235/80 after 21 days by micromethod. Conditions: CNCTC My 235/80, 504 h.
The test system of test [8] is Mycobacterium kansasii. Description: Antimycobacterial activity against Mycobacterium kansasii 6509/96 after 7 days by micromethod. Conditions: 6509/96, 168 h.
The test system of test [9] is Mycobacterium kansasii. As to the kind of experiment: Antimycobacterial activity against Mycobacterium kansasii 6509/96 after 14 days by micromethod. Conditions: 6509/96, 336 h.
Test [10] has as its system Mycobacterium kansasii. Description: Antimycobacterial activity against Mycobacterium kansasii 6509/96 after 21 days by micromethod. Conditions: 6509/96, 504 h.

Structures are written as SMILES. ≈ marks a conversion by molar mass, not a printed value.

By MIC is commonly meant the smallest concentration in the dilution series that meets the test's criterion for growth inhibition. A high value points to weaker potency. Consider `COc1cc(-n2nnnc2SCc2cc([N+](=O)[O-])cc([N+](=O)[O-])c2)cc(OC)c1OC`, for which the minimum inhibitory concentration (MIC) in test [1] worked out at 16 µM (≈ 7.17 µg/mL); in test [2], 16 µM (≈ 7.17 µg/mL); in the test on Mycobacterium avium [3], 250 µM (≈ 112 µg/mL); in the test on Mycobacterium avium [4], 250 µM (≈ 112 µg/mL); in the test with Mycobacterium kansasii [5] it was 16 µM (≈ 7.17 µg/mL); in the test with Mycobacterium kansasii [6], 32 µM (≈ 14.3 µg/mL). Moreover, the MIC in the test on Mycobacterium kansasii [7] came to 32 µM (≈ 14.3 µg/mL); in the test on Mycobacterium kansasii [8], 16 µM (≈ 7.17 µg/mL); in the test with Mycobacterium kansasii [9], 16 µM (≈ 7.17 µg/mL); with Mycobacterium kansasii [10], 32 µM (≈ 14.3 µg/mL).
Take `Nn1nnnc1SCc1cc([N+](=O)[O-])cc([N+](=O)[O-])c1`: the MIC worked out at 8 µM (≈ 2.38 µg/mL) in test [1]; 16 µM (≈ 4.76 µg/mL) in test [2]; 1000 µM (≈ 297 µg/mL) against Mycobacterium avium [3]; 1000 µM (≈ 297 µg/mL) in the test on Mycobacterium avium [4]; 8 µM (≈ 2.38 µg/mL) against Mycobacterium kansasii [5]; 32 µM (≈ 9.51 µg/mL) against Mycobacterium kansasii [6]. Moreover, the MIC in the test with Mycobacterium kansasii [7] is 32 µM (≈ 9.51 µg/mL); against Mycobacterium kansasii [8], 16 µM (≈ 4.76 µg/mL); against Mycobacterium kansasii [9] it was 32 µM (≈ 9.51 µg/mL); in the test on Mycobacterium kansasii [10] it was 32 µM (≈ 9.51 µg/mL).
For `CCCCCCn1nnnc1[Se]Cc1cc([N+](=O)[O-])cc([N+](=O)[O-])c1`, the MIC in [1] came to 1 µM (≈ 0.413 µg/mL); in test [2], 1 µM (≈ 0.413 µg/mL); in the test on Mycobacterium avium [3], 16 µM (≈ 6.61 µg/mL); with Mycobacterium avium [4] it was 32 µM (≈ 13.2 µg/mL); in the test with Mycobacterium kansasii [5], 1 µM (≈ 0.413 µg/mL); against Mycobacterium kansasii [6], 2 µM (≈ 0.827 µg/mL). Further, the MIC against Mycobacterium kansasii [7] came out at 2 µM (≈ 0.827 µg/mL); against Mycobacterium kansasii [8] it was 2 µM (≈ 0.827 µg/mL); in the test with Mycobacterium kansasii [9] it was 4 µM (≈ 1.65 µg/mL); with Mycobacterium kansasii [10], 4 µM (≈ 1.65 µg/mL).
For the compound `O=[N+]([O-])c1cc(CSc2nnnn2-c2cccc(F)c2)cc([N+](=O)[O-])c1`, the minimum inhibitory concentration (MIC) was 16 µM (≈ 6.02 µg/mL) in test [1]; 32 µM (≈ 12 µg/mL) in [2]; 250 µM (≈ 94.1 µg/mL) in the test with Mycobacterium avium [3]; 250 µM (≈ 94.1 µg/mL) against Mycobacterium avium [4]; 4 µM (≈ 1.51 µg/mL) against Mycobacterium kansasii [5]; 4 µM (≈ 1.51 µg/mL) against Mycobacterium kansasii [6]. The MIC against Mycobacterium kansasii [7] is 8 µM (≈ 3.01 µg/mL); in the test with Mycobacterium kansasii [8] it was 4 µM (≈ 1.51 µg/mL); against Mycobacterium kansasii [9], 8 µM (≈ 3.01 µg/mL); against Mycobacterium kansasii [10], 8 µM (≈ 3.01 µg/mL).
Consider `COc1ccccc1-n1nnnc1SCc1cc([N+](=O)[O-])cc([N+](=O)[O-])c1`, for which the minimum inhibitory concentration (MIC) (in test [1]; in test [2]; in the test on Mycobacterium avium [3]; against Mycobacterium avium [4]; against Mycobacterium kansasii [5]; with Mycobacterium kansasii [6]) was 125 µM (≈ 48.5 µg/mL) each time. Also, the MIC against Mycobacterium kansasii [7], against Mycobacterium kansasii [8], in the test with Mycobacterium kansasii [9] and in the test with Mycobacterium kansasii [10] was 125 µM (≈ 48.5 µg/mL) throughout.
Take `O=[N+]([O-])c1cc(CSc2nnnn2-c2ccc(F)cc2)cc([N+](=O)[O-])c1`: the MIC in [1] was 2 µM (≈ 0.753 µg/mL); in test [2], 2 µM (≈ 0.753 µg/mL); with Mycobacterium avium [3], 250 µM (≈ 94.1 µg/mL); in the test on Mycobacterium avium [4], 250 µM (≈ 94.1 µg/mL); against Mycobacterium kansasii [5], 2 µM (≈ 0.753 µg/mL); with Mycobacterium kansasii [6] it was 4 µM (≈ 1.51 µg/mL). In addition, the MIC came to 4 µM (≈ 1.51 µg/mL) in the test with Mycobacterium kansasii [7], 4 µM (≈ 1.51 µg/mL) in the test on Mycobacterium kansasii [8], 8 µM (≈ 3.01 µg/mL) against Mycobacterium kansasii [9] and 16 µM (≈ 6.02 µg/mL) against Mycobacterium kansasii [10].
Regarding `O=[N+]([O-])c1cc(C[S+]([O-])c2nnnn2-c2ccccc2)cc([N+](=O)[O-])c1` (centres undefined), the minimal inhibitory concentration (MIC) in test [1] was 62 µM (≈ 23.2 µg/mL); in [2], 62 µM (≈ 23.2 µg/mL); in the test with Mycobacterium avium [3], 125 µM (≈ 46.8 µg/mL); in the test on Mycobacterium avium [4] it was 125 µM (≈ 46.8 µg/mL); with Mycobacterium kansasii [5], 62 µM (≈ 23.2 µg/mL); against Mycobacterium kansasii [6] it was 250 µM (≈ 93.6 µg/mL). Also, the MIC against Mycobacterium kansasii [7] came to 250 µM (≈ 93.6 µg/mL); against Mycobacterium kansasii [8], 125 µM (≈ 46.8 µg/mL); against Mycobacterium kansasii [9], 250 µM (≈ 93.6 µg/mL); against Mycobacterium kansasii [10], 250 µM (≈ 93.6 µg/mL).
Take `NNC(=O)c1ccncc1` [ISONIAZID]: the MIC is 0.5 µM (≈ 0.0686 µg/mL) in test [1]; 1 µM (≈ 0.137 µg/mL) in test [2]; above 250 µM against Mycobacterium avium [3]; above 250 µM against Mycobacterium avium [4]; above 250 µM in the test with Mycobacterium kansasii [5]; above 250 µM in the test on Mycobacterium kansasii [6]. For the same compound, the MIC against Mycobacterium kansasii [8], with Mycobacterium kansasii [9] and in the test with Mycobacterium kansasii [10] was 4 µM (≈ 0.549 µg/mL) throughout.
As for `COc1cc(-n2nnnc2OCc2cc([N+](=O)[O-])cc([N+](=O)[O-])c2)cc(OC)c1OC`, the MIC in test [1] came out at 16 µM (≈ 6.92 µg/mL); in [2], 16 µM (≈ 6.92 µg/mL); with Mycobacterium avium [3] it was 32 µM (≈ 13.8 µg/mL); in the test with Mycobacterium avium [4] it was 32 µM (≈ 13.8 µg/mL); in the test on Mycobacterium kansasii [5], 8 µM (≈ 3.46 µg/mL); against Mycobacterium kansasii [6], 16 µM (≈ 6.92 µg/mL). Further, the minimum inhibitory concentration (MIC) in the test with Mycobacterium kansasii [7] turned out to be 32 µM (≈ 13.8 µg/mL); against Mycobacterium kansasii [8] it was 16 µM (≈ 6.92 µg/mL); against Mycobacterium kansasii [9], 32 µM (≈ 13.8 µg/mL); against Mycobacterium kansasii [10] it was 62 µM (≈ 26.8 µg/mL).
For `N#CSCc1cc([N+](=O)[O-])cc([N+](=O)[O-])c1`, the MIC in [1] came out at 4 µM (≈ 0.957 µg/mL); in test [2] it was 4 µM (≈ 0.957 µg/mL); against Mycobacterium avium [3] it was 32 µM (≈ 7.65 µg/mL); with Mycobacterium avium [4] it was 62 µM (≈ 14.8 µg/mL); against Mycobacterium kansasii [5] it was 2 µM (≈ 0.478 µg/mL); in the test with Mycobacterium kansasii [6], 8 µM (≈ 1.91 µg/mL). Further, the MIC against Mycobacterium kansasii [7] worked out at 16 µM (≈ 3.83 µg/mL); against Mycobacterium kansasii [8], 4 µM (≈ 0.957 µg/mL); against Mycobacterium kansasii [9], 8 µM (≈ 1.91 µg/mL); against Mycobacterium kansasii [10] it was 16 µM (≈ 3.83 µg/mL).
Regarding `Nc1cc(N)cc(CSc2nnnn2-c2ccccc2)c1`, the minimum inhibitory concentration (MIC) in test [1] was determined as 250 µM (≈ 74.6 µg/mL); in [2] it was 500 µM (≈ 149 µg/mL); in the test on Mycobacterium avium [3] it was 1000 µM (≈ 298 µg/mL); in the test on Mycobacterium avium [4], 1000 µM (≈ 298 µg/mL); against Mycobacterium kansasii [5] it was 250 µM (≈ 74.6 µg/mL); in the test on Mycobacterium kansasii [6], 1000 µM (≈ 298 µg/mL). Further, the MIC in the test with Mycobacterium kansasii [7] was determined as 1000 µM (≈ 298 µg/mL); with Mycobacterium kansasii [8], 250 µM (≈ 74.6 µg/mL); with Mycobacterium kansasii [9], 1000 µM (≈ 298 µg/mL); with Mycobacterium kansasii [10], 1000 µM (≈ 298 µg/mL).
